Measured values reported in patent publication US20210163453A1, “DERIVATIVES OF PAPAVERINE THAT ARE EFFECTIVE HYPOXIC TUMOR RADIOSENSITIZERS” (Ohio State Innovation Foundation, priority 2018, published 2021).
“Also recorded” adds a separate entry of the source.

Assays:
[1] = Cellular toxicity of PPV derivatives by trypan blue; assay type: cell-based; details: 10 uM, 72 h
Protocol: FIGS. 7A-7D show OCR and cellular toxicity data. […]. Bars represent mean OCR and PDE10 inhibitory activities from at least 5 (OCR) or 3 (PDE) replicates. All experiments were repeated at least twice. […] Values are mean+−SEM.
Experimental: Cell lines. All cell lines were purchased from the American Type Culture Collection (ATCC) and grown DMEM (Corning) supplemented with 10% FBS (Seradigm) and 1% Penicillin/Streptomycin (Fisher Bioreagents) at 37° C. in 5% CO2. Cells were treated with inhibitors papaverine hydrochloride (Sigma-Aldrich), rotenone (Sigma-Aldrich), piericidin A (Santa Cruz), capsaicin (Sigma-Aldrich), antimycin A (Sigma-Aldrich) and succinic acid disodium salt (Sigma-Aldrich). Cell viability was assessed by trypan blue exclusion.

[2] = system: EO771 or A549 flank tumors; experiment: FD-NIRS tissue oxygenation in tumor-bearing mice; assay type: in vivo
Protocol: In vivo oxygenation measurements. All animal experiments were performed according to protocols approved by institutional IACUC review, with daily veterinarian observation. 2×10^6 EO771 or 5×10^6 A549 cells were injected s.c. into the flanks of 6-week old female immunocompromised nu/nu mice. Caliper measurements of opposing diameters were used to calculate the tumor volumes. Upon reaching […], the animals were anesthetized by inhalation of 1.5% isoflurane and tumor and thigh muscle oxygenation was measured with NIRS optical probe for 30 minutes. Once the baseline oxygenation was established, the animals were injected with either 2 mg per kg of body weight of papaverine hydrochloride or saline by tail vein. Tissue oxygenation was measured for 120 minutes. Obtained oxygenation values were normalized to time of injection and average of 5 traces per treatment averaged. Error bars represent the standard deviation.
Frequency-domain near-infrared spectroscopy (FD-NIRS) can noninvasively quantify tissue hemoglobin concentration (THb) and oxygenation (SO2) in real time. This technology uses light in the 700-800 nm wavelength because it has reasonably good tissue penetration (nominally 1-2 cm in depth). A FD-NIRS system with a novel side firing probe to measure changes in tumor oxygenation in response to pharmacological intervention was developed and used in this example. This example has generated in vivo data showing that papaverine can increase oxygenation in xenografted tumors in mice.
The FD-NIRS instrument consists of a network analyzer as the radio frequency (RF) source and phase-sensitive detection system, a 1×4 RF switch, a 4×2 optical switch, a multi-channel laser diode controller, four laser diodes (654, 779, 805 and 847 nm) installed in mounts with a bias-T, an avalanche photodiode (APD) module, and a laptop computer loaded with custom software. The surface probe consists of two side-firing source fibers (200/220/240 µm, NA=0.22) and a single side-firing detection fiber (600/660/710 µm, NA=0.22), providing two source-detector separations (SDSs) of 5 and 10 mm, respectively. The fiber tips are polished to a […] and coated with a mirror to create a light path perpendicular to the fiber. All the fiber tips are epoxied into a V-groove on a thin Delrin plate (biocompatible) so that it can be easily attached to the skin surface above a tumor. The two SDSs allow elimination of artifacts due to instrument response and the skin effects, while providing a penetration depth around 10-15 mm in typical tissue.
The FD-NIRS instrument launches intensity-modulated continuous wave lasers into the tissue and collects the amplitude-attenuated and phase-shifted diffuse reflectance from the tissue at the same frequency of the incident light, both through the side-firing probe. […]

C57BL/6 mice = experiment: Acute toxicity, IV to isoflurane-anesthetized mice
Protocol: Bar graphs represent the mean area covered by pimonidazole-positive cells evaluated from 20 images per animal+−standard error of the mean. P value was calculated against control with two-tailed two-sample t test. […] Mean volumes+−SEM. P values were calculated against XRT with two-tailed two-sample t test. *P<0.05; **P<0.01; ***P<0.001; ****P<0.0001; n.s., not significant.
Reducing any possible adverse effects of PPV given to cancer patients if it is being used as a radiosensitizer are needed. PDE10A inhibition can cause systemic vascular effects which can result in a drop in blood pressure and increase in heart rate as vessels become more compliant. This acute drop in blood pressure produces a physiological compensation where the individual's heart rate and breathing rate rise to maintain tissue perfusion. If the effect on systemic vasculature was too great, this could lead to cardiovascular collapse and rapid death. Acute toxicity of PPV, SMV23 and SMV32 given IV to mice under anesthesia with 2% isoflurane was determined. Isoflurane delivered in medical air was used so that the effects on tumor oxygenation was reduced, although isoflurane can depress respiration and is typically given in 100% oxygen.

mitochondrial function = details: cited from earlier work
[3] = cited from earlier work

SMILES	cellular toxicity in vitro [1]	tumor oxygenation ([2]; 2 mg/kg by tail vein, within first 30-45 minutes)	oxygenation of normal thigh muscle ([2]; 2 mg/kg i.v.)	maximum tumor oxygenation above baseline ([2]; 2 mg/kg i.v., 30 min post injection)	oxygenation of normal thigh muscle ([2]; 2 mg/kg i.v., listed as papaverine)	time to death after delivery (C57BL/6 mice; 6 mg/kg IV bolus)	Survivors (C57BL/6 mice; 6 mg/kg IV, 2% isoflurane in medical air)	acute toxicity (C57BL/6 mice; rapid 6 mg/kg IV bolus, isoflurane-anesthetized mice)	growth of cells in media containing only galactose (mitochondrial function)	expected half-life ([3]; Ritschel et al.)	half-life, cleared from the serum ([3]; in vivo)
COc1cc2ccnc(Cc3cccc4ccccc34)c2cc1OC [SMV-32]	Neither of these compounds shows cellular toxicity										
COc1ccc(Cc2nccc3cc(OC)c(OC)cc23)cc1OC [PPV, papaverine]		significantly increased the oxygenation; also recorded: statistically significant	no significant change	1.35-1.45 × above baseline	no change was detected	≤ 5 min	0/3	toxic, with significant gasping of mice, convulsions and death	slow the growth of cells	1.5 to 2 h	1.5 to 2 h
